Measurements as given in patent US9540389B2, “Antimicrobial potentiators” (priority 2013, dated 2017).

Experiments:
Experiment in all cases: MIC assay (microbroth dilution) ± 25 μM EPI
[1] = test system: Enterobacter aerogenes ATCC 13048; format: cell-based
Text: (§1) • Strains and Reagents. The following strains were obtained from the Keio collection (Baba, et al.: Construction of Escherichia coli K-12 in-frame, single-gene knockout mutants: the Keio collection. In Mol Syst Biol, vol. 2, pp. 2006 0008, (2006)): JW0451 (ΔacrB::kan), JW5503 (ΔtolC::kan), JW3234 (ΔacrF::kan), JW2661 (ΔemrB::kan), JW0863 (ΔmacB::kan). The deletion mutations in each of these strains were transferred to AB1157 using P1 phage transduction (see Table 1). The construction of the E. coli cell-based reporter strain (SOS-XXX) that was used for high throughput screening is described in detail in the supplementary information. […] Irgasan was a generous gift from Ciba Speciality Chemicals, Inc. (High Point, N.C.). Hoechst 33342 (H33342) was purchased from Molecular Probes (Eugene, Oreg.). […] Luria Broth (Miller) and agar were purchased as prepared dehydrated media from Becton Dickenson (Franklin Lakes, N.J.). The compound libraries used in high-throughput screens were purchased from Chembridge (San Diego, Calif.), ChemDiv (San Diego, Calif.), and TimTec (Newark, Del.). MBX2319 was synthesized by Microbiotix, Inc. • Antibacterial Activity Assays. The minimal inhibitory concentration (MIC) of antibacterial agents and biocides were determined using the microbroth dilution method essentially as described in the CLSI protocol M7-A7 (CLSI: Method for dilution antimicrobial susceptibility testing for bacteria that grow aerobically; Approved standard-document M7-A7. In Clinical and Laboratory Standards Institute document M7-A7, Clinical and Laboratory Standards Institute, Wayne, Pa., (2006)), with the following exceptions. LB media was used instead of MHB. […] The final concentration of DMSO in each assay was 2%. […] MIC assays were performed in triplicate and the geometric mean was calculated. Checkerboard MIC assays using an EPI and an antibacterial agent were performed essentially as described (Pillai, et al.: Antimicrobial Combinations. In Antibiotics in Laboratory Medicine, ed. by V. Lorian, pp. 365-440, Lippincott Williams & Wilkins, Philadelphia, Pa., (2005)), with the same modifications used for the MIC assays described above. • Time-Kill Assays. Killing curve assays were performed essentially as described (Pillai, et al.: Antimicrobial Combinations. In Antibiotics in Laboratory Medicine, ed. by V. Lorian, pp. 365-440, Lippincott Williams & Wilkins, Philadelphia, Pa., (2005)). Exponential bacterial cultures grown in LB were diluted to a cell density of ˜1×10^7 in LB followed by addition of CIP and/or an EPI. Viability was monitored over 2-4 hours by making serial dilutions in saline and spotting 5 μl of each dilution onto the surface of an LB agar plate in triplicate. Colonies were counted after the plates were incubated at 37° C. for 16-18 hr, colony forming units (CFU) per ml were calculated, and the average and standard deviation for the three replicates was determined. For treatments that decreased CFU/ml below the limit of detection for the spot plating method, the 100 μl samples were diluted into 5 ml LB top agar, were poured onto LB agar plates, and incubated for 18 hr at 37° C. To calculate the fraction of the control for each sample, the average CFU/ml values for treated samples were divided by those from the same sample at 0 h (time=0). Each experiment was repeated at least three times, and a representative experiment is shown. • H33342 Accumulation Assay. The rate of accumulation of the fluorescent dye Hoechst 33342 (H33342), which is a substrate of a wide variety of bacterial efflux pumps (van den Berg van Saparoea, et al., Biochemistry, vol. 44, pp. 16931-16938, (2005)), can be used to estimate the activity of the major efflux pumps in E. coli and many other bacterial species. The H33342 accumulation assay was used to evaluate the effect of EPIs on the activity of the AcrAB-TolC efflux pump in several bacterial species essentially as described (Coldham, et al., J Antimicrob Chemother, vol. 65, pp. 1655-1663, (2010)). […]

Escherichia coli 331 = format: cell-based; details: E. coli 331
Text: as §1

Escherichia coli AB1157 = format: cell-based; details: E. coli AB1157 (WT); + 25 μM PAβN; geometric mean
Text: as §1

[2] = test system: Escherichia coli ATCC 25922; format: cell-based; details: E. coli ATCC 25922
Text: as §1

[3] = test system: Klebsiella pneumoniae ATCC 700603; format: cell-based
Text: as §1

[4] = test system: Salmonella enterica ATCC 14028; format: cell-based
Text: as §1

[5] = test system: Shigella flexneri ATCC 12022; format: cell-based
Text: as §1

P. aeruginosa ATCC 27853 = format: cell-based, Pseudomonas aeruginosa
Text: as §1

O=C(O)c1cn(C2CC2)c2cc(N3CCNCC3)c(F)cc2c1=O [Ciprofloxacin]
MIC (μg/ml) ± EPI: MBX2319 ([1]; + 25 μM MBX2319): 0.008 µg/mL | MIC (μg/ml) ± EPI: PAβN ([1]; + 25 μM PAβN): 0.031 µg/mL | MIC ([1]; Klebsiella aerogenes, ATCC13048, no EPI, read-out: MIC (μg/ml) ± EPI: None): 0.037 µg/mL | MIC (μg/ml) ± EPI: MBX2319 (Escherichia coli 331; + 25 μM MBX2319): 32 µg/mL | MIC (μg/ml) ± EPI: PAβN (Escherichia coli 331; + 25 μM PAβN): 128 µg/mL | MIC (Escherichia coli 331; Escherichia coli, no EPI, read-out: MIC (μg/ml) ± EPI: None): 128 µg/mL | MICs (μg/ml) ± EPIs: PAβN (Escherichia coli AB1157): 0.031 µg/mL | MIC (μg/ml) ± EPI: MBX2319 ([2]; + 25 μM MBX2319): 0.005 µg/mL | MIC (μg/ml) ± EPI: PAβN ([2]; + 25 μM PAβN): 0.022 µg/mL | MIC (μg/ml) ± EPI: MBX2319 ([3]; + 25 μM MBX2319): 0.088 µg/mL | MIC (μg/ml) ± EPI: PAβN ([3]; + 25 μM PAβN): 0.25 µg/mL | MIC ([3]; ATCC700603, no EPI, read-out: MIC (μg/ml) ± EPI: None): 0.29 µg/mL | MIC (μg/ml) ± EPI: MBX2319 ([4]; + 25 μM MBX2319): 0.008 µg/mL | MIC (μg/ml) ± EPI: PAβN ([4]; + 25 μM PAβN): 0.044 µg/mL | MIC ([4]; ATCC14028, no EPI, read-out: MIC (μg/ml) ± EPI: None): 0.031 µg/mL | MIC (μg/ml) ± EPI: PAβN ([5]; Shigella flexneri ATCC 12022, + 25 μM PAβN): 0.031 µg/mL | MIC ([5]; Shigella flexneri, ATCC12022, read-out: MIC (μg/ml) ± EPI: None): 0.031 µg/mL | MIC (μg/ml) ± EPI: PAβN (P. aeruginosa ATCC 27853; + 25 μM PAβN): 0.149 µg/mL | MIC (P. aeruginosa ATCC 27853; Pseudomonas aeruginosa, ATCC27853, no EPI, read-out: MIC (μg/ml) ± EPI: None): 0.21 µg/mL
